Earlier results on one molecule are cited in patent publication US20080107740A1, “Pharmaceutical composition comprising salmeterol and budesonide for the treatment of respiratory disorders” (GALEPHAR M/F, priority 2001, published 2008).

For data set [1], the system named is patients with reversible obstructive respiratory disease.
For data set [2] the following is noted: inhaled, administered after or before inhaled corticosteroids.

Where only a bound is given, the exact number is not on record here.

For the molecule `OCc1cc(C(O)CNCCCCCCOCCCCc2ccccc2)ccc1O` (stereo not shown) [Salmeterol], in data set [1] (after inhalation), the “onset of significant bronchodilation” value is “within minutes” and the “time to maximal bronchodilation” value was at most 2 h. For the same molecule, the duration of bronchodilation result in data set [1] (inhalation, patients with reversible obstructive respiratory disease) is on record as “up to 12 hours”. Further, in data set [2], the tolerability result is recorded as “well tolerated”.
